Measured values reported in patent US12606816B2, “Inhibitory T cell receptor peptides and discovery methods” (JANUX THERAPEUTICS, INC., priority 2018, dated 2026).

tested on: gp100 TCR; test: not given; conditions: read-out: ELISA | EC50 | uM

Q: For “GGCHWEHVWGAGSFFCGGGGS[PEG4]Lys(biotin)-NH2”, which EC50 is on record?
A: 1.26 µM

Q: With “GGDICQWVRSMTECSWGGGGS[PEG4]Lys(biotin)-NH2” as the substance, how does the EC50 read?
A: 0.17 µM

Q: How did the EC50 turn out when “GGFCRYVRYEFWDLCMGGGGS[PEG4]Lys(biotin)-NH2” was run?
A: 0.54 µM

Q: With “GGHCYDTHSFPMYVCLGGGGS[PEG4]Lys(biotin)-NH2” as the substance, how does the EC50 read?
A: 2.58 µM

Q: For “GGICYDYMSGYDVVCMGGGGS[PEG4]Lys(biotin)-NH2”, which EC50 is on record?
A: 0.11 µM

Q: How did the EC50 turn out when “GGLCRAVEDMWVTSCMGGGGS[PEG4]Lys(biotin)-NH2” was run?
A: 4.04 µM

Q: For “GGYCPLSYSQYDSPCYGGGGS[PEG4]Lys(biotin)-NH2”, which EC50 is on record?
A: 0.1 µM

Q: For “GGYCYYDIDLDQFLCNGGGGS[PEG4]Lys(biotin)-NH2”, which EC50 is on record?
A: 0.23 µM

Q: With “GGYDCNYDPSSHTCFYGGGGS[PEG4]Lys(biotin)-NH2” as the substance, how does the EC50 read?
A: 0.12 µM

tested on: MAGE-A3 TCR; test: not given; conditions: read-out: ELISA | EC50 | uM

Q: “GGCSWIFDGLRYFSKCGGGGS[PEG4]Lys(biotin)- NH2” was tested. Which EC50 did it give?
A: 0.15 µM

Q: For “GGESCQSVYDSSFCYDGGGGS[PEG4]Lys(biotin)- NH2”, which EC50 is on record?
A: 0.1 µM

Q: How did the EC50 turn out when “GGHCFVSPASGEWWCVGGGGS[PEG4]Lys(biotin)- NH2” was run?
A: 0.08 µM

Q: “GGNACEMTYDHTFCDPGGGGS[PEG4]Lys(biotin)- NH2” was tested. Which EC50 did it give?
A: 0.17 µM

Q: “GGNQCWEVYDQEFCSLGGGGS[PEG4]Lys(biotin)- NH2” was tested. Which EC50 did it give?
A: 0.05 µM

Q: Which EC50 does the source give for “GGNSCSLVYDKAFCLFGGGGS[PEG4]Lys(biotin)- NH2” here?
A: 0.43 µM

Q: How did the EC50 turn out when “GGRICEEVYDWIFCESGGGGS[PEG4]Lys(biotin)- NH2” was run?
A: 0.31 µM

Q: “GGRRCVDVYDNAFCLIGGGGS[PEG4]Lys(biotin)- NH2” was tested. Which EC50 did it give?
A: 0.25 µM

Q: Which EC50 does the source give for “GGSACSRIYDFAFCHTGGGGS[PEG4]Lys(biotin)- NH2” here?
A: 0.33 µM

Q: How did the EC50 turn out when “GGSLCSLVYDQDFCESGGGGS[PEG4]Lys(biotin)- NH2” was run?
A: 0.16 µM

Q: How did the EC50 turn out when “GGTFCYFDHGLVNCQWGGGGS[PEG4]Lys(biotin)- NH2” was run?
A: 0.5 µM

Q: How did the EC50 turn out when “GGTSCAQIYDFEFCYSGGGGS[PEG4]Lys(biotin)- NH2” was run?
A: 0.17 µM

Q: For “GGVSCKDVYDEAFCWTGGGGS[PEG4]Lys(biotin)- NH2”, which EC50 is on record?
A: 0.01 µM

Q: Which EC50 does the source give for LVWGCIWDDMCSGGGGS[PEG4]Lys(biotin)-NH2 here?
A: 0.1 µM

Q: For VRTWFEKFPELVGGGGS[PEG4]Lys(biotin)-NH2, which EC50 is on record?
A: 0.67 µM

tested on: Mage-A3 sTCR; test: kdis (1/s); conditions: not given
Excerpt: Table printed on a drawing sheet, FIG. 4B
Head of the field: kdis (1/s)

Q: With VSCKDVYDEAFCW [Inhibitory peptide 1] as the substance, how does the “kdis” value read?
A: 0.0282 s⁻¹

tested on: MAGE-A3 TCR / MAGE-A3 pMHC; test: not given; conditions: read-out: ELISA | IC50 | uM

Q: Which IC50 does the source give for “GGHCFVSPASGEWWCVGGGGS[PEG4]Lys(biotin)- NH2” here?
A: > 100 µM

Q: How did the IC50 turn out when “GGVSCKDVYDEAFCWTGGGGS[PEG4]Lys(biotin)- NH2” was run?
A: 0.6 µM

Q: For LVWGCIWDDMCSGGGGS[PEG4]Lys(biotin)-NH2, which IC50 is on record?
A: > 100 µM

tested on: HIV TCR; test: not given; conditions: read-out: ELISA | EC50 | uM

Q: “GGAFCVDTKPGLVCFEGGGGS[PEG4]Lys(biotin)- NH2” was tested. Which EC50 did it give?
A: 0.26 µM

Q: With “GGATCHLDNVYFLCDIGGGGS[PEG4]Lys(biotin)- NH2” as the substance, how does the EC50 read?
A: 0.34 µM

Q: “GGFTCVDGQVYYLCDSGGGGS[PEG4]Lys(biotin)- NH2” was tested. Which EC50 did it give?
A: 0.69 µM

Q: For “GGGTCFHGNTYFLCEDGGGGS[PEG4]Lys(biotin)- NH2”, which EC50 is on record?
A: 0.29 µM

Q: With “GGIECYPGFWALDCLYGGGGS[PEG4]Lys(biotin)- NH2” as the substance, how does the EC50 read?
A: 0.43 µM

Q: Which EC50 does the source give for “GGLTCSSQNIYYLCSDGGGGS[PEG4]Lys(biotin)- NH2” here?
A: 0.4 µM

Q: Which EC50 does the source give for “GGLVCNDGNIWWLCEDGGGGS[PEG4]Lys(biotin)- NH2” here?
A: 0.88 µM

Q: Which EC50 does the source give for “GGLVCNDGVVFWLCDSGGGGS[PEG4]Lys(biotin)- NH2” here?
A: 0.81 µM

Q: How did the EC50 turn out when “GGMLCNEGYWALSCFLGGGGS[PEG4]Lys(biotin)- NH2” was run?
A: 0.69 µM

Q: For “GGQLCPEGYYALMCTDGGGGS[PEG4]Lys(biotin)- NH2”, which EC50 is on record?
A: 0.15 µM

Q: Which EC50 does the source give for “GGQTCIADNVYYLCPEGGGGS[PEG4]Lys(biotin)- NH2” here?
A: 0.82 µM

Q: For “GGSNCYSLEPWIYCDTGGGGS[PEG4]Lys(biotin)- NH2”, which EC50 is on record?
A: 0.5 µM

Q: “GGTTCLEGGVYFLCADGGGGS[PEG4]Lys(biotin)- NH2” was tested. Which EC50 did it give?
A: 0.74 µM

Q: Which EC50 does the source give for “GGVICTADGVYWLCDLGGGGS[PEG4]Lys(biotin)- NH2” here?
A: 1.29 µM

Q: With “GGVTCNDGKIFYLCSDGGGGS[PEG4]Lys(biotin)- NH2” as the substance, how does the EC50 read?
A: 0.63 µM

Q: Which EC50 does the source give for “GGVTCSLGNVFYLCHDGGGGS[PEG4]Lys(biotin)- NH2” here?
A: 0.39 µM

molecular target: HIV pMHC binding to anti-HIV TCR; test: not given; conditions: read-out: ELISA | IC50 | uM

Q: Which IC50 does the source give for “GGAFCVDTKPGLVCFEGGGGS[PEG4]Lys(biotin)- NH2” here?
A: 112 µM
